Laboratory results published in ChEMBL document CHEMBL1201862, “PubChem BioAssay data set” (2004).
Values joined by “and” are separate entries in the source; they are usually repeats but may differ in a detail not shown here. Identical values can stand only once.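 Tested at 5 concentrations; 48 h exposure; 96-well plates; endpoints linearly interpolated, else capped at highest concentration. At the GI50, growth is halved.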 Active and inactive are the calls of the source. Cut-off read from the data, not from the text of the source: active = GI50 up to about 1.1 µM and inactive = higher.

Legend:
Test in all cases: NCI-60 cell line screen, 48 h
UACC-257 = system: UACC-257
SNB-19 = system: SNB-19
RXF 393 = system: RXF 393
ACHN = system: ACHN
SF-268 = system: SF-268
HOP-92 = system: HOP-92
NCI-H460 = system: NCI-H460
A549 = system: A549
OVCAR-4 = system: OVCAR-4
HOP-62 = system: HOP-62
DLD-1 = system: DLD-1
HL-60 = system: HL-60
A498 = system: A498
SK-OV-3 = system: SK-OV-3
SK-MEL-28 = system: SK-MEL-28
DMS-114 = system: DMS-114
HT-29 = system: HT-29
HCC 2998 = system: HCC 2998
PC-3 = system: PC-3
Hs-578T = system: Hs-578T

SMILES | GI50 (UACC-257) | GI50 (SNB-19) | GI50 (RXF 393) | GI50 (ACHN) | GI50 (SF-268) | GI50 (HOP-92) | GI50 (NCI-H460) | GI50 (A549) | GI50 (OVCAR-4) | GI50 (HOP-62) | GI50 (DLD-1) | GI50 (HL-60) | GI50 (A498) | GI50 (SK-OV-3) | GI50 (SK-MEL-28) | GI50 (DMS-114) | GI50 (HT-29) | GI50 (HCC 2998) | GI50 (PC-3) | GI50 (Hs-578T)
CCOC(=O)c1ccc(/N=C\c2ccc(N(CCC#N)CCC#N)cc2)cc1 | > 100 µM (inactive) | > 100 µM (inactive) | > 100 µM (inactive) | 43.2 µM (inactive) | 84.7 µM (inactive) | > 100 µM (inactive) | > 100 µM (inactive) | 70 µM (inactive) | 41.6 µM (inactive) | 40.5 µM (inactive) | 41.7 µM (inactive) | 80.9 µM (inactive) | > 100 µM (inactive) | > 100 µM (inactive) | > 100 µM (inactive) | 70 µM (inactive) | > 100 µM (inactive) | – | – | –
CCCCCCCCCCNCCSSCc1ccc(Cl)cc1 | 0.714 µM (active) | 1.71 µM (inactive) | 3.3 µM (inactive) | 4.68 µM (inactive) | 0.631 µM (active) | – | 3.25 µM (inactive) | 1.85 µM (inactive) | 1.71 µM (inactive) | – | 2.07 µM (inactive) | 1.75 µM (inactive) | 10.2 µM (inactive) | 3.84 µM (inactive) | 0.366 µM (active) | 1.57 µM (inactive) | 1.77 µM (inactive) | 1.89 µM (inactive) | – | –
O=C1CCCC/C1=C/C=C/c1ccccc1 | 62.2 µM (inactive) | > 100 µM (inactive) | 47.4 µM (inactive) | 71.4 µM (inactive) | 59.7 µM (inactive) | 58.5 µM (inactive) | > 100 µM (inactive) | 52.5 µM (inactive) | 63.8 µM (inactive) | – | 46.9 µM (inactive) | 25.9 µM (inactive) | > 100 µM (inactive) | 55.7 µM (inactive) | > 100 µM (inactive) | – | 49.3 µM (inactive) | > 100 µM (inactive) | – | –
C[N+](C)(C)CC1CCC(C[N+](C)(C)C)C1=NO (stereo not drawn) | > 100 µM (inactive) | > 100 µM (inactive) | > 100 µM (inactive) | > 100 µM (inactive) | > 100 µM (inactive) | – | – | > 100 µM (inactive) | > 100 µM (inactive) | > 100 µM (inactive) | > 100 µM (inactive) | > 100 µM (inactive) | > 100 µM (inactive) | > 100 µM (inactive) | > 100 µM (inactive) | – | > 100 µM (inactive) | – | – | –
CC(=O)OC1C=CC2CCN3C(=O)c4cc5c(cc4[C@H]1C23)OCO5 (stereo partly drawn) | > 100 µM (inactive) | > 100 µM (inactive) | > 100 µM (inactive) | > 100 µM (inactive) | > 100 µM (inactive) | – | > 100 µM (inactive) | > 100 µM (inactive) | – | > 100 µM (inactive) | > 100 µM (inactive) | > 100 µM (inactive) | – | > 100 µM (inactive) | > 100 µM (inactive) | > 100 µM (inactive) | > 100 µM (inactive) | > 10 µM (inactive) | – | –
Cn1c(=O)nc2n(-c3cccc(Cl)c3)c3ccccc3nc-2c1=O | 10.9 µM (inactive) | > 10 µM (inactive) | 21.5 µM (inactive) | 3.63 µM (inactive) | 18.2 µM (inactive) | – | 6.4 µM (inactive) | 11.4 µM (inactive) | 11.6 µM (inactive) | 28.6 µM (inactive) | – | – | 30.5 µM (inactive) | 78.9 µM (inactive) | – | 6.34 µM (inactive) | 4.53 µM (inactive) | 10.7 µM (inactive) | – | –
CC1OC(OC23C(=O)CC(C)(O)CC2(O)C=CC2=C3C(=O)c3ccc(C4CC(OC5CCC(OC6CC(O)C(O)C(C)O6)C(C)O5)C(O)C(C)O4)c(O)c3C2=O)CCC1O (stereo not drawn) | 17.9 µM (inactive) and 15.2 µM (inactive) | – | – | 17 µM (inactive) and 15.7 µM (inactive) | 17 µM (inactive) and 16.4 µM (inactive) | – | 19.4 µM (inactive) and 17.6 µM (inactive) | 29.6 µM (inactive) and 25.1 µM (inactive) | 16.4 µM (inactive) and 19.1 µM (inactive) | 27 µM (inactive) and 21.5 µM (inactive) | 11.1 µM (inactive) and 13.6 µM (inactive) | 4.42 µM (inactive) and 6.03 µM (inactive) | – | 28.1 µM (inactive) and 17.9 µM (inactive) | 15.5 µM (inactive) and 14.3 µM (inactive) | – | 12.8 µM (inactive) and 19.5 µM (inactive) | 13.9 µM (inactive) and 16.2 µM (inactive) | – | –
CC(C)(C)C(=O)N1C(C(=O)O)Cc2ccccc2[C@@H]1Cc1ccccc1 (stereo partly drawn) | > 100 µM (inactive) | > 100 µM (inactive) | > 100 µM (inactive) | > 100 µM (inactive) | > 100 µM (inactive) | > 100 µM (inactive) | > 100 µM (inactive) | > 100 µM (inactive) | > 100 µM (inactive) | > 100 µM (inactive) | – | > 100 µM (inactive) | > 100 µM (inactive) | > 100 µM (inactive) | > 100 µM (inactive) | > 100 µM (inactive) | > 100 µM (inactive) | > 100 µM (inactive) | – | –
O/N=C1/C(=C/c2ccc(Br)cc2)CCCC1C(NO)c1ccc(Br)cc1 (stereo not drawn) | 17.5 µM (inactive) | 15.8 µM (inactive) | 15.6 µM (inactive) | 17 µM (inactive) | 13.6 µM (inactive) | 12.6 µM (inactive) | > 10 µM (inactive) | 15.4 µM (inactive) | 10.4 µM (inactive) | – | – | > 100 µM (inactive) | 10.3 µM (inactive) | 24.7 µM (inactive) | 18.6 µM (inactive) | 13.5 µM (inactive) | 18.3 µM (inactive) | – | – | –
NC1=NN(c2ccccc2)C(=O)C1C(=O)C(=O)Nc1cccc(C(F)(F)F)c1 (stereo not drawn) | > 100 µM (inactive) | > 100 µM (inactive) | – | > 100 µM (inactive) | > 100 µM (inactive) | 23.7 µM (inactive) | > 100 µM (inactive) | > 100 µM (inactive) | > 100 µM (inactive) | > 100 µM (inactive) | > 100 µM (inactive) | 89.3 µM (inactive) | > 100 µM (inactive) | > 100 µM (inactive) | – | > 100 µM (inactive) | > 100 µM (inactive) | > 100 µM (inactive) | – | –
Cc1nc(Nc2ccccc2)sc1C(=O)CC(=O)C(=O)Nc1c(C(C)C)cccc1C(C)C | > 100 µM (inactive) | > 100 µM (inactive) | 42 µM (inactive) | 95.1 µM (inactive) | > 100 µM (inactive) | 32.6 µM (inactive) | > 100 µM (inactive) | > 100 µM (inactive) | > 100 µM (inactive) | 97.7 µM (inactive) | 87.9 µM (inactive) | 67.9 µM (inactive) | – | > 100 µM (inactive) | > 100 µM (inactive) | 81.7 µM (inactive) | > 100 µM (inactive) | > 100 µM (inactive) | – | –
O=C(O[C@H]1[C@@H]2C=CO[C@@H](OC3OC(CO)C(O)C(O)C3O)[C@@H]2[C@@]2(CO)O[C@@H]12)c1ccc(O)c(O)c1 (stereo partly drawn) | > 100 µM (inactive) | > 100 µM (inactive) | > 100 µM (inactive) | > 100 µM (inactive) | > 100 µM (inactive) | > 100 µM (inactive) | > 100 µM (inactive) | > 100 µM (inactive) | > 100 µM (inactive) | > 100 µM (inactive) | > 100 µM (inactive) | > 100 µM (inactive) | > 100 µM (inactive) | > 100 µM (inactive) | > 100 µM (inactive) | – | > 100 µM (inactive) | > 100 µM (inactive) | – | –
CC1(C)CC(C2CC(C)(C)CC(C)(C)[C@H]2O)[C@@H](O)C(C)(C)C1 (stereo partly drawn) | > 100 µM (inactive) | > 100 µM (inactive) | – | > 100 µM (inactive) | > 100 µM (inactive) | – | > 100 µM (inactive) | > 100 µM (inactive) | – | > 10 µM (inactive) | – | > 100 µM (inactive) | – | > 100 µM (inactive) | > 100 µM (inactive) | > 100 µM (inactive) | > 100 µM (inactive) | > 100 µM (inactive) | – | –
CN1C[C@@H]2CCCN2P1Oc1cccc2cccnc12 (stereo partly drawn) | 29.4 µM (inactive) | > 100 µM (inactive) | > 100 µM (inactive) | 49 µM (inactive) | 16 µM (inactive) | > 100 µM (inactive) | 35.4 µM (inactive) | 44.5 µM (inactive) | 32.8 µM (inactive) | 52.1 µM (inactive) | – | 16.1 µM (inactive) | > 100 µM (inactive) | > 100 µM (inactive) | 73.1 µM (inactive) | – | 33 µM (inactive) | 47.3 µM (inactive) | 27.5 µM (inactive) | 17.5 µM (inactive)
CC(=O)OC1CC[C@]2(C)C3CC[C@@]4(C)C(CCC4[C@H](C)CCCC(C)C)[C@@H]3CCC2(Br)C1 (stereo partly drawn) | 31.7 µM (inactive) | 27.4 µM (inactive) | 12.1 µM (inactive) | 9.91 µM (inactive) | 11.7 µM (inactive) | 19.7 µM (inactive) | 39.7 µM (inactive) | 19.8 µM (inactive) | 11.7 µM (inactive) | > 50 µM (inactive) | – | 9.59 µM (inactive) | 8.13 µM (inactive) | > 50 µM (inactive) | 7.91 µM (inactive) | – | 17.5 µM (inactive) | > 50 µM (inactive) | 10.9 µM (inactive) | 10.1 µM (inactive)
C#CC[N+](C)(CC#C)CC#C | > 100 µM (inactive) | > 100 µM (inactive) | > 100 µM (inactive) | > 100 µM (inactive) | > 100 µM (inactive) | > 100 µM (inactive) | > 100 µM (inactive) | > 100 µM (inactive) | > 100 µM (inactive) | > 100 µM (inactive) | > 100 µM (inactive) | > 100 µM (inactive) | – | > 100 µM (inactive) | > 100 µM (inactive) | > 100 µM (inactive) | > 100 µM (inactive) | > 100 µM (inactive) | – | –
